How the values were obtained:
RCAR11-ABI2 [1] = test: Yeast ABA signal pathway LUC reporter, RCAR11-ABI2; assay type: cell-based, Arabidopsis thaliana
Procedure: (§1) The yeast cultivation and the life luciferase assay were performed as described ([Ruschhaupt et al., 2019]). Briefly, the reporter yeast expressing an ABA-dependent luciferase gene (LUC) was transformed with different combinations of ABA signaling components as indicated. Golden gate cloning ([Binder et al., 2014]) was used to construct pYEAST_LII_5‐6_CEN_URA vector with TDH3 promoter and TDH1 terminator (tTDH1), pYEAST_LII_1‐2_CEN_LEU vector with GK1 promoter and tTDH1, and pYEAST_LII_3‐4_CEN_TRP with the GAL1 promoter (pGAL1) and tTDH1 to express RCARs, PP2Cs, and OST1 (SnRK2.6), respectively ([Ruschhaupt et al., 2019]). The expression of ABF2 in yeast relies on a modified pGREG503 vector, in which pGAL1 ([Jansen et al., 2005]) was replaced by the ADH1 promoter.
(§2) Colonies of freshly transformed cells were inoculated in 0.5 mL supplemented synthetic dextrose (SD) medium and incubated at 30°C in a gyratory shaker (Thermoshake-THO500, Gerhardt, Königswinter, Germany) at 200 rpm for 16-18 h. After overnight growth, the cells were harvested and washed in SD medium followed by inoculation in SD medium containing 2% galactose for induction of SnRK2 kinases under the control of the GAL1 promoter and supplementation with ligands at indicated concentrations, to an OD600 of 0.2 in flat-bottom 96-well plates (CytoOne, Starlab, Hamburg, Germany). Yeast cultures were incubated at 30°C and 200 rpm for 16-18 h before determination of LUC activity and cell density. Light emission of yeasts was detected in a HIDEX plate luminometer (HIDEX, Turku, Finland) after injection of 100 µL freshly prepared luciferin substrate (1 mM D-luciferin, Promega) provided in 100 mM citric acid, pH 3 ([Leskinen et al., 2003]) for 5 s and was corrected for background. The LUC activity was normalized to the cell density (OD600) measured in 96-well flat plates (Sarstedt, Nümbrecht, Germany). LUC activity is given as the ratio of light emission to OD600 in counts per second.

ABI1 with RCAR11/PYR1 = test system: ABI1 with RCAR11/PYR1; set-up: method as in Frackenpohl et al., 2018; settings: ref Frackenpohl et al., 2018; cited from earlier work
RCAR8/PYL5-ABI2 = test system: T1, RCAR8/PYL5-ABI2; test: Yeast ABA signal pathway LUC reporter, RCAR8-ABI2; assay type: cell-based, Arabidopsis thaliana
T1 construct: expressed in transfected cells; host or cells: yeast (LUC reporter strain)
Procedure: as §1, §2

RCAR8-ABI2 = test: In vitro phosphatase assay, ABI2 with RCAR8; assay type: biochemical, Arabidopsis thaliana; settings: 100 nM ABI2, 200 nM RCAR8
Procedure: (§3) Expression, purification, and analysis of RCAR and PP2C proteins were performed essentially as described ([Ruschhaupt et al., 2019]). Briefly, the ABA receptors RCAR1, RACR8, and RCAR11 were expressed with an aminoterminal histidine tag using the pSEVA431_LII_6xHIS::RCAR1/RCAR8/RCAR11. ABA coreceptors were expressed as histidine-tagged fusions with the maltose-binding protein using the pSEVA431_LII_6xHIS::MBP::ABI2/HAB1. All constructs were transformed and expressed in Escherichia coli strain BL21 and purified to homogeneity according to supplier’s instruction (GE Healthcare, Chicago, USA). The receptor assay was performed with 100 nM PP2C and a two-fold molar excess of RCAR. Values are means ± SD of three replicates. […] The maximum inhibition was set to 100% in the figures. The phosphatase activity was measured using 4-methylumbelliferyl-phosphate as a substrate ([Meinhard and Grill, 2001]). The increase in fluorescence was recorded over 25 min with excitation and emission wavelengths at 360 and 460 nm, respectively, using a Synergy 2 plate reader (Bio-Tec, Winooski, USA).

RCAR1/PYL9-ABI2 = test: Yeast ABA signal pathway LUC reporter, RCAR1-ABI2; assay type: cell-based, Arabidopsis thaliana
Procedure: as §1, with “The expression of ABF2 in yeast relies on a modified pGREG503 vector, in which pGAL1 ([Jansen et al., 2005]) was replaced by the ADH1 promoter.” left out
Colonies of freshly transformed cells were inoculated in 0.5 mL supplemented synthetic dextrose (SD) medium and incubated at 30°C in a gyratory shaker (Thermoshake-THO500, Gerhardt, Königswinter, Germany) at 200 rpm for 16-18 h. […] Light emission of yeasts was detected in a HIDEX plate luminometer (HIDEX, Turku, Finland) after injection of 100 µL freshly prepared luciferin substrate (1 mM D-luciferin, Promega) provided in 100 mM citric acid, pH 3 ([Leskinen et al., 2003]) for 5 s and was corrected for background. The LUC activity was normalized to the cell density (OD600) measured in 96-well flat plates (Sarstedt, Nümbrecht, Germany). […]

RCAR11-ABI2 [2] = test system: T2, RCAR11-ABI2; test: In vitro phosphatase assay, ABI2 with RCAR11; assay type: biochemical, Arabidopsis thaliana; settings: 100 nM ABI2, 200 nM RCAR11
T2 construct: 6xHis (N); made in house; host or cells: Escherichia coli BL21
Procedure: as §3

wheat plants = test: Foliar administration and thermal imaging of leaf temperature, wheat; assay type: in vivo, Triticum aestivum; settings: 100 μM, 24 h after administration
Procedure: (§4) Thermal imaging was carried out as described ([Yang et al., 2016]). An assessment of the efficacy of ABA and CCPs was conducted by using 35-day-old Arabidopsis and 30-day-old wheat plants. Stock solutions (10 mM) of CCPs and ABA dissolved in dimethyl sulfoxide (DMSO) were diluted to the respective ligand concentrations (10, 30, 100 µM) in water containing 0.01% (v/v) Tween 20. Aqueous Tween 20 solutions supplemented with 0.1%, 0.3%, and 1% DMSO served for mock treatments. The solutions were sprayed onto the leaf surface until the run-off of droplets. One day after application (unless otherwise indicated), thermal imaging was conducted using the InfraTec instrument (IR-TCM 384, InfraTec, Dresden, Germany). The leaf temperature of Arabidopsis was determined as the average temperature of all leaves. The leaf temperature of wheat was determined as described ([Yang et al., 2019]).

RCAR1-ABI2 = target: T3, RCAR1-ABI2 (Arabidopsis thaliana, UniProt O04719+Q84MC7); test: In vitro phosphatase assay, ABI2 with RCAR1; assay type: biochemical; settings: for Statistical significance of RCAR1-mediated inhibition of ABI2 phosphatase activity vs ABA: Fig. 3B
T3 construct: 6xHis (N); made in house; host or cells: Escherichia coli BL21
T3 sequence (Q84MC7 1-187): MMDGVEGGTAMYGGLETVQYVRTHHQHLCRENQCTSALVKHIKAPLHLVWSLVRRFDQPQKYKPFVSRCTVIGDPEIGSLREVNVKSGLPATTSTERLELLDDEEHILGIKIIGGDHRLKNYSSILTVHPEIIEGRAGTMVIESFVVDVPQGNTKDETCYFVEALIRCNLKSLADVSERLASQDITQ
T3 sequence (O04719 1-423): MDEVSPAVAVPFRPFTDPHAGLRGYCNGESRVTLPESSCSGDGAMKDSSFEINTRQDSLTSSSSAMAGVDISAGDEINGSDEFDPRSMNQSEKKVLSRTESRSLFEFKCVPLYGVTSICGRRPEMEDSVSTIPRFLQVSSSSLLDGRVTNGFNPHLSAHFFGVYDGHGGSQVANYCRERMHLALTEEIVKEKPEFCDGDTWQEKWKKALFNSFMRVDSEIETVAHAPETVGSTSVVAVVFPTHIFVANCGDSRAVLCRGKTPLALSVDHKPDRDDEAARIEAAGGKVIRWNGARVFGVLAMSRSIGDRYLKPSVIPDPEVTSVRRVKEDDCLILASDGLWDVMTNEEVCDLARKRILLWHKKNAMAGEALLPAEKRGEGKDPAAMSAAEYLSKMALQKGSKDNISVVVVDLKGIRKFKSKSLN
Procedure: as §3

Arabidopsis plants = test: Foliar administration and thermal imaging of leaf temperature (transpiration), Arabidopsis; assay type: in vivo, Arabidopsis thaliana
Procedure: as §4

Question: For `CC(=C/C(=O)O)/C=C/C(O)(C(C)C)C1(C#N)CC1` (stereo not shown) [CCP1, (2Z,4E)-6-(1-cyanocyclopropyl)-3-methyl-6-hydroxy-7-methylocta-2,4-dienoic acid], which “LUC reporter induction compared to mock-treated cells” value (RCAR11-ABI2 [1]; 30 µM exogenous ligand, 16 h exposure) is on record?
Answer: approximately eightfold

Question: And the “Activation of the ABA response compared to ABA” value (RCAR11-ABI2 [1]; dose-dependent, 0.1-30 µM)?
Answer: comparable activity to ABA

Question: What about the “Activity in in vitro inhibition of ABI1 phosphatase activity” value (ABI1 with RCAR11/PYR1) of the same compound?
Answer: ABA-like activity

Question: What about the “Reporter induction relative to ABA” value (RCAR8/PYL5-ABI2; 1 µM exogenous ligand) of the same compound?
Answer: approximately half the ABA induction

Question: And the “Higher level required for induction value comparable to 1 µM ABA” value (RCAR8/PYL5-ABI2; yeast, RCAR8-ABI2)?
Answer: about 10 x

Question: And the “IC50 relative to ABA (fold higher)” value (RCAR8-ABI2)?
Answer: around 10 fold

Question: What about the “Higher exogenous concentration required for reporter expression comparable to 1 µM ABA” value (RCAR1/PYL9-ABI2) of the same compound?
Answer: approximately 30 x

Question: And the “Inhibition of ABI2 compared to ABA” value (RCAR11-ABI2 [2])?
Answer: comparable to ABA

Question: What about the “Leaf temperature increase, activity compared to ABA” value (wheat plants) of the same compound?
Answer: higher activity than ABA

Question: What about the “Statistical significance of RCAR1-mediated inhibition of ABI2 phosphatase activity vs ABA” value (RCAR1-ABI2; 0.003 µM) of the same compound?
Answer: ns (Otherwise, the difference is regarded as insignificant indicated as “ns”)

Question: And the “Statistical significance of RCAR1-mediated inhibition of ABI2 phosphatase activity vs ABA” value (RCAR1-ABI2; 0.01 µM)?
Answer: s (P < 0.05 (one-way ANOVA) is considered as a significant difference and expressed as “s”)

Question: What about the “Statistical significance of RCAR1-mediated inhibition of ABI2 phosphatase activity vs ABA” value (RCAR1-ABI2; 0.03 µM) of the same compound?
Answer: s (P < 0.05 (one-way ANOVA) is considered as a significant difference and expressed as “s”)

Question: What about the “Statistical significance of RCAR1-mediated inhibition of ABI2 phosphatase activity vs ABA” value (RCAR1-ABI2; 0.1 µM) of the same compound?
Answer: s (P < 0.05 (one-way ANOVA) is considered as a significant difference and expressed as “s”)

Question: What about the “IC50 relative to ABA (fold higher)” value (RCAR1-ABI2; 100 nM ABI2 and 200 nM RCAR1) of the same compound?
Answer: approximately 100 fold

Question: What about the “Statistical significance of RCAR1-mediated inhibition of ABI2 phosphatase activity vs ABA” value (RCAR1-ABI2; 0.3 µM) of the same compound?
Answer: s (P < 0.05 (one-way ANOVA) is considered as a significant difference and expressed as “s”)

Question: What about the “Statistical significance of RCAR1-mediated inhibition of ABI2 phosphatase activity vs ABA” value (RCAR1-ABI2; 1 µM) of the same compound?
Answer: s (P < 0.05 (one-way ANOVA) is considered as a significant difference and expressed as “s”)

Question: And the “Statistical significance of RCAR1-mediated inhibition of ABI2 phosphatase activity vs ABA” value (RCAR1-ABI2; 3 µM)?
Answer: s (P < 0.05 (one-way ANOVA) is considered as a significant difference and expressed as “s”)

Question: And the “Statistical significance of RCAR1-mediated inhibition of ABI2 phosphatase activity vs ABA” value (RCAR1-ABI2; 10 µM)?
Answer: s (P < 0.05 (one-way ANOVA) is considered as a significant difference and expressed as “s”)

Question: And the “Statistical significance of RCAR1-mediated inhibition of ABI2 phosphatase activity vs ABA” value (RCAR1-ABI2; 30 µM)?
Answer: s (P < 0.05 (one-way ANOVA) is considered as a significant difference and expressed as “s”)

Question: And the “Statistical significance of RCAR1-mediated inhibition of ABI2 phosphatase activity vs ABA” value (RCAR1-ABI2; 100 µM)?
Answer: s (P < 0.05 (one-way ANOVA) is considered as a significant difference and expressed as “s”)

Question: What about the “Potency in reducing transpiration compared to ABA” value (Arabidopsis plants; 10 µM) of the same compound?
Answer: more potent than 100 µM ABA

Question: And the Higher leaf temperature (Arabidopsis plants; 30 µM, nineteen days after administration)?
Answer: 1.5 °C

Question: And the “Duration of persistent response” value (Arabidopsis plants; 10 and 30 µM ligand treatment)?
Answer: 10 days

Question: What about the “Potency relative to ABA” value (Arabidopsis plants; 10 and 30 µM ligand vs 100 µM ABA) of the same compound?
Answer: more than tenfold

Question: What about the “Duration of effect relative to ABA” value (Arabidopsis plants; 10 and 30 µM ligand vs ABA) of the same compound?
Answer: approximately three times

Question: What about the “Efficiency in minimizing transpiration compared to ABA” value (Arabidopsis plants; foliar application) of the same compound?
Answer: by an order of magnitude more efficient than ABA

Question: What about the “ABA concentration achieving a temperature increase similar to 10 µM of the CCP” value (Arabidopsis plants; one day after application) of the same compound?
Answer: about 100 µM

Question: And the “Activity and persistence of minimized transpiration compared to ABA” value (Arabidopsis plants; single application 100 µM, recorded for 19 days)?
Answer: more active and persistent than ABA
